The values below come from US20170037030A1, “AUTOTAXIN INHIBITORS” (NOVARTIS AG, priority 2014, published 2017).

The assay deals with T1, Recombinant human ATX (Homo sapiens, UniProt Q13822).
T1 construct: made in house; host or cells: human embryonic kidney (HEK) cells
The assay can be described thus: ATX inhibition assay (released choline, Amplex Red fluorescence). Format: biochemical. The following applies: ATX 10 nM, LPC 18:1 10 μM, pre-incubated with ATX at 37° C. for 20 minutes; mean of n≧2. Here is the method: Reagents—LPC (oleoyl (18:1)) was purchased from Avert Polar Lipids (Alabaster, Ala.) and solubilized in methanol to 20 mM. Amplex Red was obtained from Invitrogen Life Technologies (Paisley, UK) and dissolved in DMSO to 10 mM. Choline oxidase and horseradish peroxidase (HRP) were obtained from Sigma Aldrich (Dorset, UK) and dissolved in HBSS to 20 U/ml and 200 U/ml respectively. All reagents were stored at −20° C. in single use aliquots. All experimental measurements were performed in assay buffer made up immediately prior to use (HBSS, 0.01% BSA essentially fatty acid free). […]
Method—All experimental measurements were performed in black 384 well polystyrene (low volume, round bottom, Corning (3676)) plates. PerkinElmer EnVision (Fluorescence Intensity/Absorbance Monochromator) or Tecan Infinite 200 PRO series plate reader was used to detect change in fluorescent intensity.
Assessing ATX inhibition—ATX activity was determined by measurement of released choline in reactions containing ATX (10 nM), choline oxidase (0.1 U/ml), HRP (100 U/ml), amplex red (50 μM) and LPC 18:1 (10 μM). […] The liberated choline was measured from changes in fluorescence intensity (Aex 530 nm, Aem 590 nm) of the product resurofin at 37° C. every 2 minutes over a 40-minute period. ATX activity was measured as a slope of the linear portion of the progress curve, typically between 14 to 24 minutes. […]

As for `O=C(CCC(O)c1c[nH]nn1)NC1CCN(C(=O)OCc2cc(Cl)cc(Cl)c2)CC1` (centres unmarked) [Example 2, 3,5-dichlorobenzyl 4-(4-hydroxy-4-(1H-1,2,3-triazol-4-yl)butanamido)piperidine-1-carboxylate], the IC50 was determined as 10 nM.

Regarding `O=C(CCC(=O)c1c[nH]nn1)NC1CCN(C(=O)OCc2cc(Cl)cc(Cl)c2)CC1` [Example 1, 3,5-dichlorobenzyl 4-(4-oxo-4-(1H-1,2,3-triazol-4-yl)butanamido)piperidine-1-carboxylate], the half-inhibitory concentration (IC50) came out at 70 nM.
